Source: US9043995B2, “Transgenic fish and uses thereof” (CITY UNIVERSITY OF HONG KONG, priority 2010, dated 2015)
Entries after “also recorded” stand apart in the source; their conditions may differ.

How the values were obtained:
[1] = tested on: transgenic medaka fish larvae (omChgH promoter-EGFP); assay: Binary exposure with E2: change of the liver GFP signal induced by 17β-estradiol in transgenic medaka larvae (agonism / anti-estrogen activity); assay type: in vivo, Oryzias melastigma; conditions: for effect on estrogenic activity / liver GFP signal induced by 17β-estradiol: binary exposure with E2
Experimental: Another method of the present invention relates to a method of screening for a compound having anti-estrogenic activity.
(§1) In response to different concentrations of estrogen or estrogen-like chemical substances, transgenic fish expresses varying quantity of EGFP protein which is presented as varying GFP signal intensity under fluorescence microscope. […] To quantify the estrogen-like activity of test solution, fluorescent image of fish liver is recorded using a camera connected with the fluorescence microscope. Liver GFP signal intensity can then be measured using some image analysis software such as Metamorph (Universal Imaging). To reduce the interference of fish autofluorescence, only fish liver area was selected for the analysis. The average signal intensity of the manually marked area calculated using the same software was regarded as GFP signal intensity. Fish liver photos recorded using the same image parameter setting can be compared directly using GFP signal intensity, those photos recorded using varying image parameter settings can also be compared as long as each group contain a common reference control.
6-acetyl-1,1,2,4,4,7-hexamethyltetraline (AHTN) is one of the most widely used polycyclic musk. This compound is used as a fragrance ingredient in cosmetics and household cleaning products. According to HERA Risk Assessment reports in 2004, AHTN is produced in an annual volume of 1000 to 5000 tons in one Netherland and UK plant, respectively. According to HERA Risk Assessments, AHTN is not toxic to humans basing on present daily consumption. However, the ubiquitous distribution, high accumulation in environment (A Peck et al. Environ Sci Technol. 40: 5629-5635 (2006)), and bioaccumulation in organisms including human beings (H Nakata et al. Environ Sci Technol. 41: 2216-2222 (2007); S Lignell et al. Environ Sci Technol. 42: 6743-6748 (2008)) raise the concern of scientists. AHTN is found to be estrogen antagonist (RHMM Schreurs et al. Environ Sci Technol. 38: 997-1002 (2004); RHMM Schreurs et al. Toxicol Sci. 83: 264-272 (2005)). The estrogen antagonist activity of AHTN can also be very easily evaluated using transgenic medaka fish of present invention. Just expose transgenic medaka fish larvae to E2 (e.g. 0.04 μM) or E2 incombination with AHTN (e.g. 5 μM) for a period of time (e.g. 24 hours), and then measure the GFP signal intensity induced by E2 with/without the presence of AHTN.

[2] = tested on: transgenic brackish medaka larvae (omChgH promoter-EGFP); assay: Estrogen-like activity: induced liver GFP signal in omChgH promoter-EGFP transgenic brackish medaka fish exposed to test solution; assay type: in vivo, Oryzias melastigma; conditions: for induction of GFP expression in the liver, compound alone: transgenic O. melastigma fish/larvae; for induction of liver GFP expression: transgenic brackish medaka larvae, at nM level; for GFP signal in the liver: phytoestrogens separately, high concentrations, 48 hours
Experimental: A generalized exposure regimen is established in the present art. FIG. 4 presents an example of using transgenic fish larvae to analyze the estrogen-like activity of a test solution. Exposure of transgenic brackish medaka fish (preferably yolk-sac larvae fish) to test solution (containing estrogen or estrogenic substances) is performed at 28° C. The exposure usually takes 24-48 hours. After exposure, the fish will be deposited on the inner side of a petri-dish cover with a small drop of test solution left. The induced EGFP expression in the fish liver will be observed under fluorescence microscope. Yolk-sac larvae are small, exposure can be carried out in utensils like 96-well plate, 24-well plate, petri-dish and so on to save test reagents. Additionally, newly hatched larvae are the most transparent stage, and the transparence can keep up to 15 days after hatch. After 15 days, the larvae will be gradually less transparent due to the development of muscle. The transgenic fish larvae of 1 to 15 days after hatch have similar estrogen sensitivity (FIG. 5).
as §1
Estrone (E1), 17β-estradiol (E2) and estriol (E3) are natural steroid estrogens. […] Of them, E2 has been intensively studied, and is commonly used as a standard estrogen to evaluate the estrogen-like activity of testing reagents. Using transgenic larvae of present invention, induced GFP signal by E2 can usually be observed within 24 hours, and the GFP signal increases with the increasing concentration of E2. At higher E2 concentrations (e.g., 102 or 1020 nM), induced GFP signal intensity can even be observed within 4 hours after onset of exposure, and the signal increases with exposure time (FIG. 8), and reaches saturation within 24 hours. At low E2 concentrations, however, it will take longer for the induced GFP signal to accumulate to become detectable. Thus, by exposing transgenic brackish medaka fish larvae to different concentrations of E2 for a period of time (such as 24 hours), imaging the GFP expressing liver, and then measuring the induced liver GFP signal intensity using image analysis software, a standard curve correlating GFP signal intensity and E2 concentration can be established (GFP-E2 standard curve; FIG. 9). Using the same regimen, and also include one known E2 concentration exposure as reference, the estrogen-like activity of test reagents can then be evaluated as estrogen potency equivalent by referring the induced liver GFP signal to that of GFP-E2 standard curve.

Row | Compound | effect on estrogenic activity / liver GFP signal induced by 17β-estradiol [1] | induction of GFP expression in the liver, compound alone [2] | GFP signal in the liver [2] | other results
1 | CC(=O)c1cc2c(cc1C)C(C)(C)C(C)CC2(C)C (stereo not drawn) [AHTN, 6-acetyl-1,1,2,4,4,7-hexamethyltetraline] | decreased | – | – | GFP signal induced by E2 in the presence of AHTN ([1]; E2 0.04 μM, AHTN 5 μM, 24 hours): weaker GFP signal
2 | COc1ccc(C(=O)CC(=O)c2ccc(C(C)(C)C)cc2)cc1 [BMDM, 4-tert-Butyl-4′-methoxydibenzoylmethane] | estrogen agonism | cannot induce the GFP expression | – | –
3 | CC(C)(c1ccc(O)cc1)c1ccc(O)cc1 [BPA, bisphenol A] | – | can also induce GFP expression | – | –
4 | C[C@]12CC[C@@H]3c4ccc(O)cc4CC[C@H]3[C@@H]1CC[C@@H]2O [E2, 17β-estradiol, reference compound] | – | – | – | time until induced GFP signal can be observed, higher E2 concentrations ([2]; 102 or 1020 nM, after onset of exposure): ≤ 4 h; induced expression of transgene GFP in the liver ([2]; embryo, larva and male fish): can also be induced; time until GFP signal reaches saturation ([2]; higher E2 concentrations (102 or 1020 nM)): ≤ 24 h; induction of liver GFP expression [2]: can induce liver GFP expression; time until induced GFP signal can be observed ([2]; transgenic larvae, E2 exposure): ≤ 24 h
5 | C[C@]12CC[C@@H]3c4ccc(O)cc4CC[C@H]3[C@@H]1C[C@@H](O)[C@@H]2O [E3, estriol, reference compound] | – | – | – | induction of liver GFP expression [2]: can induce liver GFP expression
6 | CC1CC(OC(=O)c2ccccc2O)CC(C)(C)C1 (stereo not drawn) [HMS, homosalate] | can enhance the estrogenic activity of 17β-estradiol in a dose-dependent manner; also recorded: increased | cannot induce the GFP expression | – | –
7 | CCCCCCCCCc1ccc(O)cc1 [NP, 4-nonyphenol] | – | can also induce GFP expression | – | –
8 | CCCCC(CC)COC(=O)c1ccc(N(C)C)cc1 (stereo not drawn) [OD-PABA, octyl dimethyl PABA] | estrogen agonism | cannot induce the GFP expression | – | –
9 | O=c1c(-c2ccc(O)cc2)coc2cc(O)ccc12 [daidzein] | – | – | weak GFP signal | –
10 | O=c1c(-c2ccc(O)cc2)coc2cc(O[C@@H]3O[C@H](CO)[C@@H](O)[C@H](O)[C@H]3O)ccc12 [daidzin] | – | – | weak GFP signal | –
11 | C#C[C@]1(O)CC[C@H]2[C@@H]3CCc4cc(OC)ccc4[C@H]3CC[C@@]21C [ethinylestradiol 3-methyl ether, reference compound] | – | – | – | induced liver GFP signal compared with E2 ([2]; same concentration (nM), same period (24 hours)): stronger than that induced by E2
12 | O=c1c(-c2ccc(O)cc2)coc2cc(O)cc(O)c12 [genistein] | – | – | weak GFP signal | –
13 | O=c1c(-c2ccc(O)cc2)coc2cc(O[C@@H]3O[C@H](CO)[C@@H](O)[C@H](O)[C@H]3O)cc(O)c12 [genistin] | – | – | weak GFP signal | –
